Assay results: the kinase profiling compilation of Christmann-Franck et al. (2016)

Key:
Experiment in all cases: radiometric filter-binding kinase assay, Kinase HotSpot
Conditions in all cases: compound 0.5 µM; ATP 10 µM
SRC (human) = SRC (human) (UniProt P12931)
MARK3 (human) = MARK3 (human) (UniProt P27448)
SLK (human) = SLK (human) (UniProt Q9H2G2)
TGFBR1 (human) = TGFBR1 (human) (UniProt P36897)
CSNK2A1 (human) = CSNK2A1 (human) (UniProt P68400)
STK17A (human) = STK17A (human) (UniProt Q9UEE5)
RAF1 (human) = RAF1 (human) (UniProt P04049)
SYK (human) = SYK (human) (UniProt P43405)
GSK3A (human) = GSK3A (human) (UniProt P49840)
CSNK1G3 (human) = CSNK1G3 (human) (UniProt Q9Y6M4)
EPHB2 (human) = EPHB2 (human) (UniProt P29323)
BTK (human) = BTK (human) (UniProt Q06187)
CDC42BPA (human) = CDC42BPA (human) (UniProt Q5VT25)
MAP3K3 (human) = MAP3K3 (human) (UniProt Q99759)
TSSK2 (human) = TSSK2 (human) (UniProt Q96PF2)
PRKACA (human) = PRKACA (human) (UniProt P17612)
PAK6 (human) = PAK6 (human) (UniProt Q9NQU5)
ZAP70 (human) = ZAP70 (human) (UniProt P43403)
PTK2B (human) = PTK2B (human) (UniProt Q14289)
ROCK2 (human) = ROCK2 (human) (UniProt O75116)
MARK4 (human) = MARK4 (human) (UniProt Q96L34)
AURKA (human) = AURKA (human) (UniProt O14965)
NEK4 (human) = NEK4 (human) (UniProt P51957)
AXL (human) = AXL (human) (UniProt P30530)
CAMKK2 (human) = CAMKK2 (human) (UniProt Q96RR4)
PLK2 (human) = PLK2 (human) (UniProt Q9NYY3)
STK24 (human) = STK24 (human) (UniProt Q9Y6E0)
MYLK (human) = MYLK (human) (UniProt Q15746)
PRKD2 (human) = PRKD2 (human) (UniProt Q9BZL6)
FGFR3 (human) = FGFR3 (human) (UniProt P22607)
ACVR1B (human) = ACVR1B (human) (UniProt P36896)
MAPK14 (human) = MAPK14 (human) (UniProt Q16539)
RIPK2 (human) = RIPK2 (human) (UniProt O43353)
MAP4K2 (human) = MAP4K2 (human) (UniProt Q12851)
EPHA5 (human) = EPHA5 (human) (UniProt P54756)
[1] = target: TYK2 JH1 catalytic (human) (UniProt P29597)
CSNK1A1 (human) = CSNK1A1 (human) (UniProt P48729)
TEC (human) = TEC (human) (UniProt P42680)
[2] = target: JAK1 JH1 catalytic (human) (UniProt P23458)
CDK9 CCNT1 (human) = CDK9 CCNT1 (human) (UniProt P50750+O60563)
AKT1 (human) = AKT1 (human) (UniProt P31749)
MAPK12 (human) = MAPK12 (human) (UniProt P53778)

AURKA (human), sequence (O14965 whole entry, looked up): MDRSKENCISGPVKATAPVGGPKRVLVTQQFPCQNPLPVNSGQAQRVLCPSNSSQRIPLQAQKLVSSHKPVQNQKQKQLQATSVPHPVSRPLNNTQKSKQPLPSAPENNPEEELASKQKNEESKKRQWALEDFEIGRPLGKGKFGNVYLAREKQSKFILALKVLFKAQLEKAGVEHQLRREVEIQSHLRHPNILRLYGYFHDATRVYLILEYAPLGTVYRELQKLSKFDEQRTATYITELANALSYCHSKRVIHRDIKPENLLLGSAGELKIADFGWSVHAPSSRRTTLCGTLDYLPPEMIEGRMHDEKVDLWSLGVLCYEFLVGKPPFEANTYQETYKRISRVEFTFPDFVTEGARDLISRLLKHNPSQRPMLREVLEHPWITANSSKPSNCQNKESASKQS
TSSK2 (human), sequence (Q96PF2 whole entry, looked up): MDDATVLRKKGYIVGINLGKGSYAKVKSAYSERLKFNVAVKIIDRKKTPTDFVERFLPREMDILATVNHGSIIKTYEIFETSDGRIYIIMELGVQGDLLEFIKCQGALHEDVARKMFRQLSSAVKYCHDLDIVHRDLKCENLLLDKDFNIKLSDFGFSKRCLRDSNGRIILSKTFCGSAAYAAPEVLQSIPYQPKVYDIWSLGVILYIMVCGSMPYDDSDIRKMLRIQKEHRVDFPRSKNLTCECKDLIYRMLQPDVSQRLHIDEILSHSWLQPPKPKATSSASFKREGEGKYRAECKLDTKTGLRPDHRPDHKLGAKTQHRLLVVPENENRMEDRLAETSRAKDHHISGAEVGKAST
AXL (human), sequence (P30530 whole entry, looked up): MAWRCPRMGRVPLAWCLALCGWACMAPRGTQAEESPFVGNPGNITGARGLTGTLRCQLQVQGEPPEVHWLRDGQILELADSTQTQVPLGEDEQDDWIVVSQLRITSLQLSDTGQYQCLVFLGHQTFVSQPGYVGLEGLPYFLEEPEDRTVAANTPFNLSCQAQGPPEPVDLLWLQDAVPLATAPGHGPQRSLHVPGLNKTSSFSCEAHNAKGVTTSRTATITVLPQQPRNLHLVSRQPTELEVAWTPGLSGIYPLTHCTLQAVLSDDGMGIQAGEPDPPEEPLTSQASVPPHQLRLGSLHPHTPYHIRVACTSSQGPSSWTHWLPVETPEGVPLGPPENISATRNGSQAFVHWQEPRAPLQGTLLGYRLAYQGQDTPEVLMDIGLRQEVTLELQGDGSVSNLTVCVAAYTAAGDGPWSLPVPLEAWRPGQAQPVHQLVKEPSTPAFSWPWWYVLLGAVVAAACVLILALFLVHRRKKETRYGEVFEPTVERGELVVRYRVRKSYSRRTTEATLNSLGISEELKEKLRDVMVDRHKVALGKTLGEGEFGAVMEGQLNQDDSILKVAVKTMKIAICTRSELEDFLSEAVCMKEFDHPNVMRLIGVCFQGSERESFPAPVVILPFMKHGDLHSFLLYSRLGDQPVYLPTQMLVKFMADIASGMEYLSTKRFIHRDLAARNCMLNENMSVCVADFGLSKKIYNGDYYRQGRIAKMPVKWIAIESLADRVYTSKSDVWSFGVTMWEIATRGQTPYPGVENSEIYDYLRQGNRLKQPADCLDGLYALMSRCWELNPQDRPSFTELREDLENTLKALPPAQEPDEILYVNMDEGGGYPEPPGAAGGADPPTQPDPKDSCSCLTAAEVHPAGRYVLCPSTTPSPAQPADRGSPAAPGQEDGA
ROCK2 (human), sequence (O75116 whole entry, looked up): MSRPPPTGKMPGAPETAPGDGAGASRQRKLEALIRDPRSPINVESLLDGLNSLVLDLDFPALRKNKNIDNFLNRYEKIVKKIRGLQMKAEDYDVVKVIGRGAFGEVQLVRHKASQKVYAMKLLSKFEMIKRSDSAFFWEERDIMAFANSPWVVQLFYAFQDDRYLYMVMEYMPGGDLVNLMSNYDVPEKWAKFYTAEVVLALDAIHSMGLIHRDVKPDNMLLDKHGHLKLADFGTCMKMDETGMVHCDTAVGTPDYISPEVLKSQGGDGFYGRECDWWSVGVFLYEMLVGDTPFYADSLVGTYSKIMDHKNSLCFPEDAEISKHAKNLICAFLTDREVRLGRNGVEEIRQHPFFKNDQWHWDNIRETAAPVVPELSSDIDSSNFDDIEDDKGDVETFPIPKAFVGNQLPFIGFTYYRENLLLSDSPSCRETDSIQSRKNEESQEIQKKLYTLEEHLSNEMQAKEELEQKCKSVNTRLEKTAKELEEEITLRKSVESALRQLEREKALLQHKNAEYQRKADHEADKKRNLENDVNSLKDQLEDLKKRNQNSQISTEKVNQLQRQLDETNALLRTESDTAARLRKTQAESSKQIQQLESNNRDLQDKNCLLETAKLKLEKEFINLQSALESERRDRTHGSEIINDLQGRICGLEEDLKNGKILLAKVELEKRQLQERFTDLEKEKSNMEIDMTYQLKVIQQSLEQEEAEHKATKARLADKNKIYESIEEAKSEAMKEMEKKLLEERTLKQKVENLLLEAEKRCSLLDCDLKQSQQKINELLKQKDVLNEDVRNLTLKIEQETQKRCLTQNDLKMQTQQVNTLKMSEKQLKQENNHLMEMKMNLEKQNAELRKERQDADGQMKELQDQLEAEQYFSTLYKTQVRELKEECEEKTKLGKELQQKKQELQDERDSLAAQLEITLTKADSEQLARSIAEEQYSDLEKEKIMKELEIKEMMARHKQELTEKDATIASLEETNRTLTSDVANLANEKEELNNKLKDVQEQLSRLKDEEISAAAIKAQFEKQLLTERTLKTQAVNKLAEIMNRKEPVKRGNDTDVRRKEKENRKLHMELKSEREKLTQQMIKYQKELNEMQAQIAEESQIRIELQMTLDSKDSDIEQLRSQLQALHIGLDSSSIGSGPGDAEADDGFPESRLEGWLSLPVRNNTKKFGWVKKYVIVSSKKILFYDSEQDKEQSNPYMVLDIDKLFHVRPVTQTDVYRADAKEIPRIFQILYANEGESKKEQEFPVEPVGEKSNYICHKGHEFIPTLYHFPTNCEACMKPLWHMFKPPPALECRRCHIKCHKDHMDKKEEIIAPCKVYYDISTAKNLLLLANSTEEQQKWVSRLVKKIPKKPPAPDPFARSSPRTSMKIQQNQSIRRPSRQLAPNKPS
CDK9 CCNT1 (human), sequence (O60563 whole entry, looked up): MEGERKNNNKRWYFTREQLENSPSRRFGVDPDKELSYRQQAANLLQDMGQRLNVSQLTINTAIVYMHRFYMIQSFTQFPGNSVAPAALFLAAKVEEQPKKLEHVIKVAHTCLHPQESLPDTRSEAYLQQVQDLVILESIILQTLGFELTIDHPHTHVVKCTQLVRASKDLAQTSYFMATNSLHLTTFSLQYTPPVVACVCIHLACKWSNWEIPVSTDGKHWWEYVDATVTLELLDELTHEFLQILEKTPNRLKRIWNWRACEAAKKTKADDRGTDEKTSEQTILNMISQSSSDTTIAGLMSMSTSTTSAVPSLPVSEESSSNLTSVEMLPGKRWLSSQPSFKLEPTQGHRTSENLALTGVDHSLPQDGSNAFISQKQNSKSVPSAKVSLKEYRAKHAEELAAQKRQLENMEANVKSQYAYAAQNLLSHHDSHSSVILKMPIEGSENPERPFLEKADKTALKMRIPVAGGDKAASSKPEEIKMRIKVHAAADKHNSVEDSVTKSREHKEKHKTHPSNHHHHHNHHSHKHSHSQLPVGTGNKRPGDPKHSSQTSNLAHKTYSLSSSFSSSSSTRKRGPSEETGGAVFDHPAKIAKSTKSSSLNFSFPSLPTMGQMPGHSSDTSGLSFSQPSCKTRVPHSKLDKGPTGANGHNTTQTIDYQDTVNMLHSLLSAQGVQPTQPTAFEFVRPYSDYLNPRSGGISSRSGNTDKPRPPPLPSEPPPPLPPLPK
CDK9 CCNT1 (human), sequence (P50750 whole entry, looked up): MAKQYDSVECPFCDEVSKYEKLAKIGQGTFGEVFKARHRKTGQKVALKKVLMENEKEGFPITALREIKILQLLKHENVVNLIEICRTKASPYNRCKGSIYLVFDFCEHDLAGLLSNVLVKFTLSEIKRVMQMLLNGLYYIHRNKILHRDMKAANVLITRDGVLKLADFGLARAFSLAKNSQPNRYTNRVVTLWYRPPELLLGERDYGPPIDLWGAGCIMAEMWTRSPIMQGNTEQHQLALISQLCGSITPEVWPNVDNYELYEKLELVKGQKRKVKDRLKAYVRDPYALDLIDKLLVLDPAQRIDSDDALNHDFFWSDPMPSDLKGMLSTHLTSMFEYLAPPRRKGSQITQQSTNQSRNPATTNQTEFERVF
AKT1 (human), sequence (P31749 whole entry, looked up): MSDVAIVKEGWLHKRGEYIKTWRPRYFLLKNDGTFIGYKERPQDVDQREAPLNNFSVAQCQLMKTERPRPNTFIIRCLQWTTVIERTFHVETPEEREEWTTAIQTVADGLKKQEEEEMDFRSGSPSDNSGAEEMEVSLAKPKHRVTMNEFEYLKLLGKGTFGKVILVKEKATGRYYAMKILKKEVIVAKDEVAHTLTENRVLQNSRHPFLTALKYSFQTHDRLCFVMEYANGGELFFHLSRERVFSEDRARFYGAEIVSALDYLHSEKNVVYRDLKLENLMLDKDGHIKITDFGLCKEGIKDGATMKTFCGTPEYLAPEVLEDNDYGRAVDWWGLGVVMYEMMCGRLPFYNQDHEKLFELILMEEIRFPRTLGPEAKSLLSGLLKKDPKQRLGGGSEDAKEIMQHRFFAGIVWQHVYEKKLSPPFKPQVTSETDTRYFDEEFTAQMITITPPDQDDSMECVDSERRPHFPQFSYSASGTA
MAPK14 (human), sequence (Q16539 whole entry, looked up): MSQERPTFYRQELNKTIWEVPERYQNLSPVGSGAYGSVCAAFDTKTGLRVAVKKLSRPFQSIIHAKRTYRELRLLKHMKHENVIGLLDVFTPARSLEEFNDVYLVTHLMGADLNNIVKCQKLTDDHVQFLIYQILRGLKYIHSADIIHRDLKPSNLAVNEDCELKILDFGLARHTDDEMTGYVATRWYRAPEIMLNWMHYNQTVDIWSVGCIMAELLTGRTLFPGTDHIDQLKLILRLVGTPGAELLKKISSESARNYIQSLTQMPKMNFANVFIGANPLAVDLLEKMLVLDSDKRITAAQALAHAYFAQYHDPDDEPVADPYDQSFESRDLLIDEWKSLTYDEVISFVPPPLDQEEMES

`O=C1NC(=O)c2c1c1c3ccccc3[nH]c1n1cncc21` was tested. Which residual activity (SRC (human)) did it give?
Its residual activity is 88.4%.

What about the residual activity (MARK3 (human)) of the same molecule?
The residual activity was 29.8%.

What about the residual activity (SLK (human)) of the same molecule?
Its residual activity is 87.8%.

And the residual activity (TGFBR1 (human))?
Its residual activity is 96.3%.

What about the residual activity (CSNK2A1 (human)) of the same molecule?
Its residual activity is 52.6%.

What about the residual activity (STK17A (human)) of the same molecule?
The residual activity was 36.6%.

And the residual activity (RAF1 (human))?
Its residual activity is 108%.

And the residual activity (SYK (human))?
Its residual activity is 84.9%.

And the residual activity (GSK3A (human))?
The residual activity was 10.4%.

What about the residual activity (CSNK1G3 (human)) of the same molecule?
Its residual activity is 87%.

And the residual activity (EPHB2 (human))?
Its residual activity is 86.1%.

What about the residual activity (BTK (human)) of the same molecule?
Its residual activity is 83.9%.

And the residual activity (CDC42BPA (human))?
Its residual activity is 92.7%.

What about the residual activity (MAP3K3 (human)) of the same molecule?
The residual activity was 86.9%.

And the residual activity (TSSK2 (human))?
The residual activity was 99.1%.

What about the residual activity (PRKACA (human)) of the same molecule?
Its residual activity is 98.2%.

And the residual activity (PAK6 (human))?
Its residual activity is 85.5%.

And the residual activity (ZAP70 (human))?
Its residual activity is 87.8%.

And the residual activity (PTK2B (human))?
The residual activity was 70.1%.

What about the residual activity (ROCK2 (human)) of the same molecule?
Its residual activity is 93.2%.

What about the residual activity (MARK4 (human)) of the same molecule?
Its residual activity is 26.8%.

What about the residual activity (AURKA (human)) of the same molecule?
The residual activity was 34.8%.

What about the residual activity (NEK4 (human)) of the same molecule?
The residual activity was 88.4%.

What about the residual activity (AXL (human)) of the same molecule?
The residual activity was 91.7%.

What about the residual activity (CAMKK2 (human)) of the same molecule?
The residual activity was 77.2%.

And the residual activity (PLK2 (human))?
Its residual activity is 63.8%.

What about the residual activity (STK24 (human)) of the same molecule?
Its residual activity is 48.4%.

What about the residual activity (MYLK (human)) of the same molecule?
Its residual activity is 15.5%.

And the residual activity (PRKD2 (human))?
Its residual activity is 69.4%.

And the residual activity (FGFR3 (human))?
The residual activity was 85%.

And the residual activity (ACVR1B (human))?
Its residual activity is 103%.

And the residual activity (MAPK14 (human))?
The residual activity was 101%.

What about the residual activity (RIPK2 (human)) of the same molecule?
The residual activity was 67.5%.

And the residual activity (MAP4K2 (human))?
Its residual activity is 51.8%.

What about the residual activity (EPHA5 (human)) of the same molecule?
The residual activity was 92%.

And the residual activity [1]?
Its residual activity is 85.4%.

And the residual activity (CSNK1A1 (human))?
The residual activity was 51.6%.

What about the residual activity (TEC (human)) of the same molecule?
Its residual activity is 96.7%.

What about the residual activity [2] of the same molecule?
Its residual activity is 102%.

And the residual activity (CDK9 CCNT1 (human))?
Its residual activity is 82.9%.

What about the residual activity (AKT1 (human)) of the same molecule?
The residual activity was 102%.

What about the residual activity (MAPK12 (human)) of the same molecule?
Its residual activity is 85.9%.

Which residual activity (SRC (human)) does the source give for `c1ccc2c(-c3ccncc3)c[nH]c2c1` here?
The residual activity was 100%.

And the residual activity (MARK3 (human))?
The residual activity was 98%.

And the residual activity (SLK (human))?
The residual activity was 103%.

And the residual activity (TGFBR1 (human))?
Its residual activity is 103%.

What about the residual activity (CSNK2A1 (human)) of the same molecule?
The residual activity was 95%.

And the residual activity (STK17A (human))?
The residual activity was 93%.

And the residual activity (RAF1 (human))?
Its residual activity is 93.2%.

And the residual activity (SYK (human))?
Its residual activity is 98.6%.

And the residual activity (GSK3A (human))?
The residual activity was 103%.

And the residual activity (CSNK1G3 (human))?
Its residual activity is 108%.

And the residual activity (EPHB2 (human))?
The residual activity was 114%.

What about the residual activity (BTK (human)) of the same molecule?
Its residual activity is 104%.

What about the residual activity (CDC42BPA (human)) of the same molecule?
The residual activity was 99.9%.

What about the residual activity (MAP3K3 (human)) of the same molecule?
Its residual activity is 103%.

And the residual activity (TSSK2 (human))?
The residual activity was 96.9%.

And the residual activity (PRKACA (human))?
Its residual activity is 91.6%.

And the residual activity (PAK6 (human))?
Its residual activity is 104%.

What about the residual activity (ZAP70 (human)) of the same molecule?
The residual activity was 105%.

What about the residual activity (PTK2B (human)) of the same molecule?
The residual activity was 95.3%.

What about the residual activity (ROCK2 (human)) of the same molecule?
The residual activity was 71.9%.

And the residual activity (MARK4 (human))?
Its residual activity is 94.7%.

What about the residual activity (AURKA (human)) of the same molecule?
The residual activity was 78%.

What about the residual activity (NEK4 (human)) of the same molecule?
Its residual activity is 95.4%.

What about the residual activity (AXL (human)) of the same molecule?
The residual activity was 99.8%.

What about the residual activity (CAMKK2 (human)) of the same molecule?
The residual activity was 113%.

What about the residual activity (PLK2 (human)) of the same molecule?
Its residual activity is 99.9%.

And the residual activity (STK24 (human))?
Its residual activity is 93.5%.

And the residual activity (MYLK (human))?
Its residual activity is 96.8%.

And the residual activity (PRKD2 (human))?
The residual activity was 95.7%.

What about the residual activity (FGFR3 (human)) of the same molecule?
The residual activity was 98.9%.

And the residual activity (ACVR1B (human))?
Its residual activity is 98.8%.

And the residual activity (MAPK14 (human))?
The residual activity was 104%.

And the residual activity (RIPK2 (human))?
The residual activity was 89.9%.

And the residual activity (MAP4K2 (human))?
Its residual activity is 101%.

And the residual activity (EPHA5 (human))?
Its residual activity is 99.4%.

And the residual activity [1]?
The residual activity was 101%.

What about the residual activity (CSNK1A1 (human)) of the same molecule?
Its residual activity is 100%.

What about the residual activity (TEC (human)) of the same molecule?
The residual activity was 123%.

What about the residual activity [2] of the same molecule?
The residual activity was 109%.

And the residual activity (CDK9 CCNT1 (human))?
The residual activity was 75.2%.

What about the residual activity (AKT1 (human)) of the same molecule?
Its residual activity is 100%.

And the residual activity (MAPK12 (human))?
Its residual activity is 104%.
